Measurements: ChEMBL document CHEMBL1159144, “Novel pyridazino[4,5-b][1,5]oxazepines and -thiazepines as 5-HT1A receptor ligands” (Bioorg Med Chem Lett, 1997)

Experiments:
[1] = biological target: T1, 5-hydroxytryptamine receptor 1A (Rattus norvegicus, UniProt P19327); assay: Binding affinity towards 5-hydroxytryptamine 1A receptor using receptor binding assay
T1 sequence (P19327 whole entry): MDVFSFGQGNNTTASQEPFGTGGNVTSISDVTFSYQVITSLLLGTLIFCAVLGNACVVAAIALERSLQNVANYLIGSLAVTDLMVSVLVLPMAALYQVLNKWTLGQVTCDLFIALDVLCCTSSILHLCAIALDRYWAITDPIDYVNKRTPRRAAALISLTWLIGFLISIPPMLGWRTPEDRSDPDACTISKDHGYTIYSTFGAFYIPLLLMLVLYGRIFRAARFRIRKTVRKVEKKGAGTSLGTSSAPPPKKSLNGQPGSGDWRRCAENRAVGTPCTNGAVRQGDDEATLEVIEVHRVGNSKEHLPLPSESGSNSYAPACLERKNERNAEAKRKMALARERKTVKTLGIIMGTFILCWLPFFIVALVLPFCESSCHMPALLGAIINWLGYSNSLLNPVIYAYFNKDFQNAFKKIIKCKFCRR

[2] = biological target: T2, Adrenergic receptor alpha-2 (Rattus norvegicus, UniProt P22086+P19328+P22909); assay: Binding affinity towards Alpha-2 adrenergic receptor; type: protein assay
T2 sequence (P22086 whole entry): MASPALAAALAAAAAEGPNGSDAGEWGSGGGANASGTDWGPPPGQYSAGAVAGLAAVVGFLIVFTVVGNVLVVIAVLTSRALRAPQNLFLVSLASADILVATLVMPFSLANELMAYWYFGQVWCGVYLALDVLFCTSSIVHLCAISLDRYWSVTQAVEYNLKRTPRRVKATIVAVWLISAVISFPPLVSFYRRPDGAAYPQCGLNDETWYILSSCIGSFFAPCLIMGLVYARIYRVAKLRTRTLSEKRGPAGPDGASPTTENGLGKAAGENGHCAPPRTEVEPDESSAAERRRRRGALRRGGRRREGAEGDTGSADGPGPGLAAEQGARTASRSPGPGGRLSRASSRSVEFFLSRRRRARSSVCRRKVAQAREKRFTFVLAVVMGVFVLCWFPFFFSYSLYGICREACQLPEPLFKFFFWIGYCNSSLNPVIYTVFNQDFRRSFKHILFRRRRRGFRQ
T2 sequence (P19328 whole entry): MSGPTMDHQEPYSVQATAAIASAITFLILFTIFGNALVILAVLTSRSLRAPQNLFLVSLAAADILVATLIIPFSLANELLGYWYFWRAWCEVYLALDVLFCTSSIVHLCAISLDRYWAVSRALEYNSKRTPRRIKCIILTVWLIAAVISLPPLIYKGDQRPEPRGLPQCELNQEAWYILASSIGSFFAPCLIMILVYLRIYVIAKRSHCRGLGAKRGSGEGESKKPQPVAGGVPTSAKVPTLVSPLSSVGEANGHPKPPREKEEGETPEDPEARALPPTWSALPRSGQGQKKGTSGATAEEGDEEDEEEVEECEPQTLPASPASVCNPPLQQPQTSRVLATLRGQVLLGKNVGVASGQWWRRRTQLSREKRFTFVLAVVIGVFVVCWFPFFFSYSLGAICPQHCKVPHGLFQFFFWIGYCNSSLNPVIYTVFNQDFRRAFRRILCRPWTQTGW
T2 sequence (P22909 whole entry): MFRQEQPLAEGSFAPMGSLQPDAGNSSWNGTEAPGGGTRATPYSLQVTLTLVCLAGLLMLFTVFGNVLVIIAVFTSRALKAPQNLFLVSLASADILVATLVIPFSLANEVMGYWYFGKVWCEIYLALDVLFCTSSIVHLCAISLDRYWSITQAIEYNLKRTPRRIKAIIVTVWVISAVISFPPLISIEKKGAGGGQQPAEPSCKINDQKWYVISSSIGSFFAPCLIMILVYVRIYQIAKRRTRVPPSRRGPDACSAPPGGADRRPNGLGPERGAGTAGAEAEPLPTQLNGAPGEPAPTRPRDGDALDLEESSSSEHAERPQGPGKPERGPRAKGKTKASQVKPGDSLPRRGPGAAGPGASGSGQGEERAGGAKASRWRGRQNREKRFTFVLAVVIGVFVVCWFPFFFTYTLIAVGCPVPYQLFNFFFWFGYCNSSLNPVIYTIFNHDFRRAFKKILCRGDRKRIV

[3] = biological target: T3, Adrenergic receptor alpha-1 (Rattus norvegicus, UniProt P15823+P23944+P43140); assay: Binding affinity towards Alpha-1 adrenergic receptor; type: protein assay
T3 sequence (P15823 whole entry): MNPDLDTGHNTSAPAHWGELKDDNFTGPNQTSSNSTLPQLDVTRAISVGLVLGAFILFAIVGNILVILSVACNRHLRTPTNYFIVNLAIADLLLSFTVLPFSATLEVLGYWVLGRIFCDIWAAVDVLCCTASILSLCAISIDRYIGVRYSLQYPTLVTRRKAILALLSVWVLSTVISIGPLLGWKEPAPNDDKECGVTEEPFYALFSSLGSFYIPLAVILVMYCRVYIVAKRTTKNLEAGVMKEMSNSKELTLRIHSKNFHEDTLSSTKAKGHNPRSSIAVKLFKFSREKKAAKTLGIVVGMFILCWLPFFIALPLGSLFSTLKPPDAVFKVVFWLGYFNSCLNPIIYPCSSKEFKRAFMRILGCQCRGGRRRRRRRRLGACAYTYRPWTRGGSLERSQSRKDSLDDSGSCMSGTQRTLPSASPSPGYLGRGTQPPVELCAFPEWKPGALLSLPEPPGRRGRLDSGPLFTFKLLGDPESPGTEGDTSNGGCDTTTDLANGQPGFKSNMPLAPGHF
T3 sequence (P23944 whole entry): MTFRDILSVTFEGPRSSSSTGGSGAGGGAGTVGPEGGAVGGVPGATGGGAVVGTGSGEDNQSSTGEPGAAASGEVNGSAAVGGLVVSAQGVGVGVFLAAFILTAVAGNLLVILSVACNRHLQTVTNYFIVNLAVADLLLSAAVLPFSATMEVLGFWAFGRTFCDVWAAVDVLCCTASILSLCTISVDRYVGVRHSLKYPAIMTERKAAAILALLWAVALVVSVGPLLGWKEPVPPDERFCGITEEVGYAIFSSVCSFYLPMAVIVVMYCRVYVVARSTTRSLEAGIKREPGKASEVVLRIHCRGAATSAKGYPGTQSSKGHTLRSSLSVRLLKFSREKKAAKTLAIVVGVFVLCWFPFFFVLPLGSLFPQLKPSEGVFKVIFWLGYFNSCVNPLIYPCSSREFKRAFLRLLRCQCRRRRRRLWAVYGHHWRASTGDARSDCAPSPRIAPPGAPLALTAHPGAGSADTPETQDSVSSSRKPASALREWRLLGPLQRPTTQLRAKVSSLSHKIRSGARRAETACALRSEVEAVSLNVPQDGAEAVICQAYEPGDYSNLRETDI
T3 sequence (P43140 whole entry): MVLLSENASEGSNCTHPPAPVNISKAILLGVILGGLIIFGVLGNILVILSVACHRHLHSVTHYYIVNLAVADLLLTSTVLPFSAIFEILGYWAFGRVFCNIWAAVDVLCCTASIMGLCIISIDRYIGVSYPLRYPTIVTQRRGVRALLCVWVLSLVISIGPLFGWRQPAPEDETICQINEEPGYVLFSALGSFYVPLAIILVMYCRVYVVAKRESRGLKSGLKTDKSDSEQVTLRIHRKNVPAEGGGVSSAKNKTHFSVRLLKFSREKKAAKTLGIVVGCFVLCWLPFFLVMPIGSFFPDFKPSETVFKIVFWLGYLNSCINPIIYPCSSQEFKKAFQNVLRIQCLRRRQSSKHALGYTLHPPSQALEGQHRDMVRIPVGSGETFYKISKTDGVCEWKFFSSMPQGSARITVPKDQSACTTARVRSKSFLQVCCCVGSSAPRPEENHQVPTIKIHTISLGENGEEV

COc1ccccc1OCCN(C)CCC(=O)N1CCCOc2c1cnn(C)c2=O
IC50 [1]: 134 nM
IC50 [2]: 9500 nM
IC50 [3]: 16100 nM

COc1ccccc1OCCNCCC(=O)N1CCCSc2c1cnn(C)c2=O
IC50 [1]: 11.4 nM
IC50 [2]: 270 nM
IC50 [3]: 1700 nM

COc1ccccc1OCCN(CCC(=O)N1CCCOc2c1cnn(C)c2=O)Cc1ccccc1
IC50 [1]: 1000 nM

CCSc1c(N(C)C(=O)CCNCCOc2ccccc2OC)cnn(C)c1=O
IC50 [1]: 32.7 nM

COc1ccccc1OCCNCCCC(=O)N1CCCSc2c1cnn(C)c2=O
IC50 [1]: 9.2 nM
IC50 [2]: 860 nM
IC50 [3]: 930 nM

Cn1ncc2c(c1=O)SCCCN2C(=O)CCNCCOc1cccc(Cl)c1
IC50 [1]: 181 nM

Cn1ncc2c(c1=O)SCCCN2C(=O)CCNCCOc1ccccc1
IC50 [1]: 150 nM

COc1ccccc1OCC(O)CN1CCN(CCC(=O)N2CCCOc3c2cnn(C)c3=O)CC1 (stereo unspecified)
IC50 [1]: > 1000 nM
IC50 [2]: 47000 nM
IC50 [3]: > 10000 nM

COc1ccccc1OCCNCCCC(=O)N1CCCOc2c1cnn(C)c2=O
IC50 [1]: 17.8 nM
IC50 [2]: 3900 nM
IC50 [3]: 690 nM

Cn1ncc2c(c1=O)OCCCN2C(=O)CNCCOc1ccccc1
IC50 [1]: 230 nM

Cn1ncc2c(c1=O)OCCCN2C(=O)CCNCCOc1cccc(Cl)c1
IC50 [1]: 312 nM

COc1ccccc1OCCNCC(=O)N1CCCSc2c1cnn(C)c2=O
IC50 [1]: 37 nM
IC50 [2]: 3100 nM
IC50 [3]: > 10000 nM

COc1cccc(OCC(O)CN2CCN(CCC(=O)N3CCCSc4c3cnn(C)c4=O)CC2)c1 (stereo unspecified)
IC50 [1]: 118 nM

COc1ccccc1OCCNC(C)C(=O)N1CCCOc2c1cnn(C)c2=O (stereo unspecified)
IC50 [1]: > 1000 nM

COc1ccccc1OCCNCCC(=O)N1CCCOc2c1cnn(C)c2=O
IC50 [1]: 19.5 nM
IC50 [2]: 1800 nM
IC50 [3]: 1700 nM

Cn1ncc2c(c1=O)SCCCN2C(=O)CNCC1COc2ccccc2O1 (stereo unspecified)
IC50 [1]: 44.9 nM
IC50 [2]: 2330 nM
IC50 [3]: 19000 nM

COc1ccccc1OCC(O)CN1CCN(CC(=O)N2CCCOc3c2cnn(C)c3=O)CC1 (stereo unspecified)
IC50 [1]: > 1000 nM

COc1ccccc1OCCN(C)CCCN1CCCSc2c1cnn(C)c2=O
IC50 [1]: > 1000 nM

COc1ccccc1OCCNC(C)C(=O)N1CCCSc2c1cnn(C)c2=O (stereo unspecified)
IC50 [1]: > 1000 nM

Cn1ncc2c(c1=O)OCCCN2C(=O)CNCC1COc2ccccc2O1 (stereo unspecified)
IC50 [1]: 299 nM
IC50 [2]: 4600 nM
IC50 [3]: > 10000 nM

COc1ccccc1OCCN(CCC(=O)N1CCCSc2c1cnn(C)c2=O)Cc1ccccc1
IC50 [1]: > 1000 nM

COc1ccccc1OCCNCC(=O)N1CCCOc2c1cnn(C)c2=O
IC50 [1]: 163 nM
IC50 [2]: 21000 nM
IC50 [3]: 12500 nM

COc1ccccc1N1CCN(CC(=O)N2CCCOc3c2cnn(C)c3=O)CC1
IC50 [1]: > 1000 nM

Cn1ncc2c(c1=O)OCCCN2C(=O)CCNCCOc1ccccc1
IC50 [1]: 524 nM
IC50 [2]: 540 nM
IC50 [3]: 8900 nM
